Values belong to the compound of their own block, whether it stands above or below them.
What was measured:
[1] = biological target: T1, NAMPT (Homo sapiens, UniProt P43490); test: Time-Resolved Fluorescence Resonance Energy Transfer (TR-FRET) Binding Assay of NAMPT; conditions: 6.8 nM NAMPT, 200 nM probe, equilibrated 3 hours, no substrates
Procedure, shortened: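 IC50s come from four-parameter logistic fits of control-normalized Em520/Em495 TR-FRET ratios (Ex 337 nm) against compound concentration. Before reading, enzyme, probe, antibody and compound equilibrated for 3 h at room temperature.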

[2] = biological target: T1, NAMPT; test: TR-FRET Binding Assay of NAMPT with PRPP; conditions: 2 nM NAMPT, 2 nM probe, 200 µM PRPP and 2.5 mM ATP, equilibrated 16 hours
Procedure, shortened: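 Substrates present: PRPP at 200 µM and ATP at 2.5 mM, final, alongside 2 nM enzyme, 2 nM tracer and 1 nM terbium anti-His donor in 2% DMSO. A 16-hour equilibration preceded the time-resolved FRET read, allowing compounds to be enzymatically modified.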

[3] = system: PC3 cells; test: NAMPT Cell Proliferation Assay (Cell Titer Glo); assay type: cell-based; conditions: Homo sapiens, PC-3, 120 h, incubated 5 days, cell viability
Procedure, shortened: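 Viability measured by Cell Titer Glo luminescence after 5-day exposure of attached PC3 cells to compound, dosed as 10-fold serial dilutions ([…]) in RPMI/10% FBS at 37 °C and 5% CO2. Percent inhibition fitted to sigmoidal dose-response curves for IC50.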

T1 sequence (P43490 whole entry): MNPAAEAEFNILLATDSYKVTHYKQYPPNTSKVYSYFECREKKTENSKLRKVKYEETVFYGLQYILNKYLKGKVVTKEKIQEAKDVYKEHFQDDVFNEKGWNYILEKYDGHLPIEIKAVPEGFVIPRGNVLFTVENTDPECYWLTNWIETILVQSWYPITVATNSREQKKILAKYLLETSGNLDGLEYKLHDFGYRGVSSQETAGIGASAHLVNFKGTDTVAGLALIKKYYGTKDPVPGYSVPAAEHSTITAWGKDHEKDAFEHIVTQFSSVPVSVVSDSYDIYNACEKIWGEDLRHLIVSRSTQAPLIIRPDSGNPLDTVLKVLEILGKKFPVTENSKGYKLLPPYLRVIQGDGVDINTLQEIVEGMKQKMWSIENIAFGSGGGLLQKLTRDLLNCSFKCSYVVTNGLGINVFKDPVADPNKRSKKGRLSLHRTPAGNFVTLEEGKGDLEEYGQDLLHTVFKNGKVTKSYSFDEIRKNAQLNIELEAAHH

SMILES: O=C(CN1CCOCC1)N1CC[C@@H](Oc2ccc(NC(=O)N3CC(c4cccnc4)C3)cc2)C1 [Example 302, N-(4-{[(3R)-1-(morpholin-4-ylacetyl)pyrrolidin-3-yl]oxy}phenyl)-3-(pyridin-3-yl)azetidine-1-carboxamide]
IC50 [1]: 0.337 µM
IC50 [2]: 0.000393 µM
IC50 [3]: 0.141 µM

SMILES: CCOCC(=O)N1CC(Oc2ccc(NC(=O)N3CC(c4cccnc4)C3)cc2)C1 [Example 119, N-(4-{[1-(ethoxyacetyl)azetidin-3-yl]oxy}phenyl)-3-(pyridin-3-yl)azetidine-1-carboxamide]
IC50 [1]: 0.117 µM
IC50 [2]: 0.000978 µM
IC50 [3]: 0.0769 µM

SMILES: CC(C)(C)OC(=O)N1CCC(c2ccc(NC(=O)N3CC(c4cccnc4F)C3)cc2)CC1 [Example 116, tert-butyl 4-[4-({[3-(2-fluoropyridin-3-yl)azetidin-1-yl]carbonyl}amino)phenyl]piperidine-1-carboxylate]
IC50 [1]: 0.0267 µM
IC50 [2]: 0.000744 µM
IC50 [3]: 0.135 µM

SMILES: COC(=O)c1ccc(NC(=O)N2CC(c3cccnc3)C2)cc1 [Example 13, methyl 4-({[3-(pyridin-3-yl)azetidin-1-yl]carbonyl}amino)benzoate]
IC50 [1]: 0.201 µM
IC50 [2]: 0.000374 µM
IC50 [3]: 0.514 µM

SMILES: Cc1ccsc1C(=O)N1CC(c2ccc(NC(=O)N3CC(c4cccnc4)C3)cc2)C1 [Example 220, N-(4-{1-[(3-methylthiophen-2-yl)carbonyl]azetidin-3-yl}phenyl)-3-(pyridin-3-yl)azetidine-1-carboxamide]
IC50 [1]: 0.0104 µM
IC50 [2]: 0.00034 µM
IC50 [3]: 0.00415 µM

SMILES: O=C(CC1CC1)N1CC(Oc2ccc(NC(=O)N3CC(c4cccnc4)C3)cc2)C1 [Example 114, N-(4-{[1-(cyclopropylacetyl)azetidin-3-yl]oxy}phenyl)-3-(pyridin-3-yl)azetidine-1-carboxamide]
IC50 [1]: 0.0158 µM
IC50 [2]: 0.000189 µM
IC50 [3]: 0.00811 µM

SMILES: O=C(CC1CCOCC1)N1CCC(Oc2ccc(NC(=O)N3CC(c4cncc(F)c4)C3)cc2)CC1 [Example 3, 3-(5-fluoropyridin-3-yl)-N-(4-{[1-(tetrahydro-2H-pyran-4-ylacetyl)piperidin-4-yl]oxy}phenyl)azetidine-1-carboxamide]
IC50 [1]: 1.22 µM
IC50 [2]: 0.00764 µM
IC50 [3]: 4.68 µM

SMILES: O=C(Nc1ccc(O[C@@H]2CCN(C(=O)[C@@H]3CCCO3)C2)cc1)N1CC(c2cccnc2)C1 [Example 78, 3-(pyridin-3-yl)-N-[4-({(3R)-1-[(2S)-tetrahydrofuran-2-ylcarbonyl]pyrrolidin-3-yl}oxy)phenyl]azetidine-1-carboxamide]
IC50 [1]: 0.137 µM
IC50 [2]: 0.000226 µM
IC50 [3]: 0.056 µM

SMILES: COCCOCC(=O)N1CC(Oc2ccc(NC(=O)N3CC(c4cccnc4)C3)cc2)C1 [Example 118, N-[4-({1-[(2-methoxyethoxy)acetyl]azetidin-3-yl}oxy)phenyl]-3-(pyridin-3-yl)azetidine-1-carboxamide]
IC50 [1]: 0.036 µM
IC50 [2]: 0.000324 µM
IC50 [3]: 0.0777 µM

SMILES: O=C(Nc1ccc(O[C@@H]2CCN(C(=O)c3nccs3)C2)cc1)N1CC(c2cccnc2)C1 [Example 307, 3-(pyridin-3-yl)-N-(4-{[(3R)-1-(1,3-thiazol-2-ylcarbonyl)pyrrolidin-3-yl]oxy}phenyl)azetidine-1-carboxamide]
IC50 [1]: 0.0243 µM
IC50 [2]: 0.000197 µM
IC50 [3]: 0.00987 µM

SMILES: CC(C)(C)OC(=O)N1CC(Oc2ccc(NC(=O)N3CC(c4cccnc4)C3)cc2)C1 [Example 63, tert-butyl 3-[4-({[3-(pyridin-3-yl)azetidin-1-yl]carbonyl}amino)phenoxy]azetidine-1-carboxylate]
IC50 [1]: 0.0446 µM
IC50 [2]: 0.00039 µM
IC50 [3]: 0.012 µM

Next, values leading:

IC50 [1]: 0.0505 µM
IC50 [2]: 0.000419 µM
IC50 [3]: 0.0264 µM
SMILES: O=C(CC1CC1)N1CCC(Oc2ccc(NC(=O)N3CC(c4cccnc4)C3)cc2)CC1 [Example 40, N-(4-{[1-(cyclopropylacetyl)piperidin-4-yl]oxy}phenyl)-3-(pyridin-3-yl)azetidine-1-carboxamide]

IC50 [1]: 0.0758 µM
IC50 [2]: 0.000289 µM
IC50 [3]: 0.0437 µM
SMILES: O=C(Nc1ccc(C2CN(C(=O)C3CCCC3)C2)cc1)N1CC(c2cccnc2)C1 [Example 214, N-{4-[1-(cyclopentylcarbonyl)azetidin-3-yl]phenyl}-3-(pyridin-3-yl)azetidine-1-carboxamide]

IC50 [1]: 0.0383 µM
IC50 [2]: 0.000363 µM
IC50 [3]: 0.0345 µM
SMILES: CC(C)CCC(=O)N1CCC(c2ccc(NC(=O)N3CC(c4cccnc4)C3)cc2)C1 (stereo not drawn) [Example 275, N-{4-[1-(4-methylpentanoyl)pyrrolidin-3-yl]phenyl}-3-(pyridin-3-yl)azetidine-1-carboxamide]

IC50 [1]: 0.108 µM
IC50 [2]: 0.000309 µM
IC50 [3]: 0.0273 µM
SMILES: O=C(CC1CCOCC1)N1CC(c2ccc(NC(=O)N3CC(c4cccnc4)C3)cc2)C1 [Example 100, 3-(pyridin-3-yl)-N-{4-[1-(tetrahydro-2H-pyran-4-ylacetyl)azetidin-3-yl]phenyl}azetidine-1-carboxamide]

IC50 [1]: 0.188 µM
IC50 [2]: 0.000389 µM
IC50 [3]: 0.0951 µM
SMILES: O=C(Nc1ccc(C2CN(C(=O)C3CCOC3)C2)cc1)N1CC(c2cccnc2)C1 (stereo not drawn) [Example 104, 3-(pyridin-3-yl)-N-{4-[1-(tetrahydrofuran-3-ylcarbonyl)azetidin-3-yl]phenyl}azetidine-1-carboxamide]

IC50 [1]: 0.0656 µM
IC50 [2]: 0.000211 µM
IC50 [3]: 0.0777 µM
SMILES: O=C(CC(F)(F)F)N1CCC(c2ccc(NC(=O)N3CC(c4cccnc4)C3)cc2)C1 (stereo not drawn) [Example 72, 3-(pyridin-3-yl)-N-{4-[1-(3,3,3-trifluoropropanoyl)pyrrolidin-3-yl]phenyl}azetidine-1-carboxamide]

IC50 [1]: 0.0289 µM
IC50 [2]: 0.000503 µM
IC50 [3]: 0.045 µM
SMILES: CCOCCC(=O)N1CCC(c2ccc(NC(=O)N3CC(c4cccnc4)C3)cc2)CC1 [Example 168, N-{4-[1-(3-ethoxypropanoyl)piperidin-4-yl]phenyl}-3-(pyridin-3-yl)azetidine-1-carboxamide]

IC50 [1]: 0.0604 µM
IC50 [2]: 0.000252 µM
IC50 [3]: 0.0516 µM
SMILES: CC1CC1C(=O)N1CCC(c2ccc(NC(=O)N3CC(c4cccnc4)C3)cc2)C1 (stereo not drawn) [Example 262, N-(4-{1-[(2-methylcyclopropyl)carbonyl]pyrrolidin-3-yl}phenyl)-3-(pyridin-3-yl)azetidine-1-carboxamide]

IC50 [1]: 0.0183 µM
IC50 [2]: 0.000204 µM
IC50 [3]: 0.0223 µM
SMILES: O=C(Nc1ccc(C2CCN(C(=O)c3cccs3)C2)cc1)N1CC(c2cccnc2)C1 (stereo not drawn) [Example 284, 3-(pyridin-3-yl)-N-{4-[1-(thiophen-2-ylcarbonyl)pyrrolidin-3-yl]phenyl}azetidine-1-carboxamide]

IC50 [1]: 0.0144 µM
IC50 [2]: 0.000389 µM
IC50 [3]: 0.0619 µM
SMILES: O=C(CC1C[C@@H]2CC[C@H]1C2)N1CCC(c2ccc(NC(=O)N3CC(c4cccnc4)C3)cc2)CC1 (stereo partly drawn) [Example 165, N-(4-{1-[(1S,4R)-bicyclo[2.2.1]hept-2-ylacetyl]piperidin-4-yl}phenyl)-3-(pyridin-3-yl)azetidine-1-carboxamide]

IC50 [1]: 0.306 µM
IC50 [2]: 0.000596 µM
IC50 [3]: 0.11 µM
SMILES: O=C(Nc1ccc(C2CN(C(=O)C3CC3)C2)cc1)N1CC(c2cccnc2)C1 [Example 109, N-{4-[1-(cyclopropylcarbonyl)azetidin-3-yl]phenyl}-3-(pyridin-3-yl)azetidine-1-carboxamide]

— patent US9296723B2, “NAMPT inhibitors” (AbbVie Inc., priority 2012, dated 2016)
